The results in this text go back to ChEMBL document CHEMBL1201862, “PubChem BioAssay data set” (2004).

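The compound was tested at five concentrations on cells cultured in 96-well plates, with a 48-hour exposure period. GI50 = concentration required for 50% inhibition of growth.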 Active and inactive are the calls of the source. Rule as the data show it: active = GI50 up to about 1.1 µM and inactive = higher.

The GI50 is the concentration giving 50% growth inhibition.

Test systems include 786-0; ACHN; EKVX; HOP-92; NCI-H226; NCI-H460; OVCAR-8; SF-539; SK-MEL-28; SNB-19; SNB-75; SR; SW-620; UACC-62; RPMI-8226.
Experiment in all cases: DTP human tumour cell line panel, 48 h

Take `C=C(C)C1CC=C(C(=O)O)CC1` (stereo not drawn): the GI50 is 1410 µM (inactive) with 786-0; 1020 µM (inactive) in the experiment with ACHN; 2360 µM (inactive) in the experiment with EKVX; 1440 µM (inactive) with HOP-92; 1040 µM (inactive) with NCI-H226; 1360 µM (inactive) in the experiment on NCI-H460. The GI50 was 1200 µM (inactive) in the experiment with OVCAR-8; 1070 µM (inactive) in the experiment with SF-539; 1010 µM (inactive) with SK-MEL-28; 1190 µM (inactive) with SNB-19; 1200 µM (inactive) in the experiment on SNB-75; 1160 µM (inactive) in the experiment with SR. Further, the GI50 with SW-620 was 1740 µM (inactive); in the experiment with UACC-62, 741 µM (inactive).
Take `NC(=S)N/N=C/c1cn(CCCl)c2ccccc12`: the GI50 in the experiment on 786-0 was 43.7 µM (inactive); with EKVX, 14.7 µM (inactive); in the experiment with HOP-92, 21.9 µM (inactive); in the experiment with OVCAR-8, 57.3 µM (inactive); in the experiment on RPMI-8226, 14.2 µM (inactive); in the experiment with SK-MEL-28 it was 63.5 µM (inactive). The GI50 in the experiment on SNB-19 was > 100 µM (inactive); in the experiment with SNB-75 it was 12.9 µM (inactive); with SR, 11 µM (inactive); with SW-620, 43.6 µM (inactive); in the experiment on UACC-62 it was 30.2 µM (inactive).
In the case of `COc1ccc([C@@H]2OC(=O)C3C2C(=O)O[C@H]3c2ccc(OC)cc2)cc1` (stereo partly drawn), the GI50 with 786-0 is > 100 µM (inactive); in the experiment with ACHN, > 100 µM (inactive); with EKVX, > 100 µM (inactive); with HOP-92, 0.209 µM (active); in the experiment with NCI-H460 it was > 100 µM (inactive); in the experiment with OVCAR-8, > 100 µM (inactive). For the same compound, the GI50 with RPMI-8226, with SF-539, in the experiment with SK-MEL-28, in the experiment with SNB-19, with SNB-75 and with SR was > 100 µM (inactive) throughout. Also, the GI50 with SW-620 and in the experiment with UACC-62 was > 100 µM (inactive) throughout.
Regarding `CN1C/C(=C\c2ccccc2)C2=NN(C(N)=S)[C@H](c3ccccc3)[C@@H]2C1`, the GI50 with 786-0 is 64 µM (inactive); in the experiment with ACHN it was 76.7 µM (inactive); in the experiment with EKVX it was > 100 µM (inactive); in the experiment with HOP-92 it was 75.3 µM (inactive); with NCI-H226, 75.5 µM (inactive); with NCI-H460, 50.5 µM (inactive). Further, the GI50 in the experiment on RPMI-8226 is 0.276 µM (active); in the experiment with SF-539, > 100 µM (inactive); with SK-MEL-28 it was > 100 µM (inactive); in the experiment on SNB-19 it was > 100 µM (inactive); with SR, > 100 µM (inactive); in the experiment on SW-620, > 100 µM (inactive). In addition, the GI50 in the experiment on UACC-62 is 74.6 µM (inactive).
As for `O=C(O)CNc1c2ccccc2nc2ccccc12`, the GI50 with 786-0, in the experiment with ACHN, in the experiment on EKVX, in the experiment on HOP-92, in the experiment on NCI-H226 and in the experiment on NCI-H460 was > 100 µM (inactive) throughout. In addition, the GI50 with OVCAR-8 is > 100 µM (inactive); in the experiment with RPMI-8226 it was 56.8 µM (inactive); in the experiment with SF-539, > 100 µM (inactive); in the experiment with SK-MEL-28 it was > 100 µM (inactive); in the experiment with SNB-19 it was > 100 µM (inactive); in the experiment on SNB-75 it was > 100 µM (inactive). The GI50 with SR, in the experiment on SW-620 and with UACC-62 was > 100 µM (inactive) each time.
With `NC(=O)C(=O)N/N=C1\C(=O)N(c2ccc(Cl)cc2Cl)C(=O)C1C(=O)Nc1ccc(Cl)cc1Cl` (stereo not drawn), the GI50 in the experiment with 786-0, with ACHN, with EKVX, in the experiment on HOP-92, in the experiment on NCI-H226 and with NCI-H460 was > 100 µM (inactive) in each case. In addition, the GI50 in the experiment on OVCAR-8 is > 100 µM (inactive); with RPMI-8226 it was > 100 µM (inactive); with SF-539, > 100 µM (inactive); in the experiment on SK-MEL-28, > 100 µM (inactive); in the experiment with SNB-19, > 100 µM (inactive); in the experiment with SNB-75 it was 28.8 µM (inactive). Besides, the GI50 in the experiment with SR, with SW-620 and with UACC-62 was > 100 µM (inactive) throughout.
With `Cc1cc(=O)n(-c2ccccc2)c(=O)o1`, the GI50 in the experiment with 786-0, in the experiment on ACHN, in the experiment with EKVX, in the experiment on HOP-92, with NCI-H226 and in the experiment with NCI-H460 was > 100 µM (inactive) throughout. Also, the GI50 with RPMI-8226, in the experiment on SF-539, in the experiment on SK-MEL-28, in the experiment on SNB-19, in the experiment on SNB-75 and in the experiment with SR was > 100 µM (inactive) in each case. Also, the GI50 in the experiment on SW-620 and in the experiment with UACC-62 was > 100 µM (inactive) in each case.
Turning to `CC1OC(n2cc(C(F)(F)F)c(=O)[nH]c2=O)C=CC1=O` (stereo not drawn), the GI50 was 18.4 µM (inactive) in the experiment on 786-0; 17.5 µM (inactive) with ACHN; 23.9 µM (inactive) in the experiment on HOP-92; 28.4 µM (inactive) in the experiment on NCI-H226; 23.5 µM (inactive) in the experiment with NCI-H460; 27.2 µM (inactive) in the experiment on OVCAR-8. The GI50 was 13.5 µM (inactive) in the experiment on RPMI-8226; 18.9 µM (inactive) in the experiment on SF-539; 21 µM (inactive) in the experiment with SK-MEL-28; 16.4 µM (inactive) with SNB-19; 16 µM (inactive) in the experiment with SNB-75; 12.7 µM (inactive) in the experiment on SR. For the same compound, the GI50 is 17.6 µM (inactive) with SW-620 and 21 µM (inactive) with UACC-62.
As to `N#CC1(C=O)c2ccccc2C=CN1C(=O)c1ccccc1` (stereo not drawn), the GI50 is 31.7 µM (inactive) in the experiment on 786-0; 27.4 µM (inactive) with ACHN; 29.7 µM (inactive) with EKVX; 23.4 µM (inactive) with HOP-92; 61.9 µM (inactive) in the experiment with NCI-H226; 73.6 µM (inactive) in the experiment with NCI-H460. In addition, the GI50 in the experiment on OVCAR-8 was 41.8 µM (inactive); in the experiment with SK-MEL-28, > 100 µM (inactive); with SNB-19 it was 58.3 µM (inactive); in the experiment on SNB-75, 15.1 µM (inactive); in the experiment on SR, 18.5 µM (inactive); in the experiment with SW-620 it was 4.3 µM (inactive). In addition, the GI50 in the experiment with UACC-62 is 52.5 µM (inactive).
Turning to `CC(=O)OCC1OC(N2C(=O)C(=O)c3ccccc32)C(OC(C)=O)C(OC(C)=O)C1OC(C)=O` (stereo not drawn), the GI50 with 786-0, in the experiment on ACHN, with EKVX, in the experiment with HOP-92, in the experiment with NCI-H226 and in the experiment on NCI-H460 was > 100 µM (inactive) in each case. Moreover, the GI50 in the experiment with OVCAR-8, in the experiment on RPMI-8226, in the experiment on SF-539, in the experiment with SK-MEL-28, in the experiment with SNB-19 and in the experiment with SNB-75 was > 100 µM (inactive) in each case. In addition, the GI50 with SR, in the experiment with SW-620 and in the experiment on UACC-62 was > 100 µM (inactive) in each case.
As for `CC[C@H]1[C@@H](C)C=C[C@@H](C)N1S(=O)(=O)c1ccc(C)cc1`, the GI50 in the experiment on 786-0 is > 100 µM (inactive); in the experiment with ACHN, 67 µM (inactive); with EKVX, > 100 µM (inactive); in the experiment with NCI-H226, > 100 µM (inactive); in the experiment on NCI-H460, > 10 µM (inactive); in the experiment on OVCAR-8 it was > 100 µM (inactive). In addition, the GI50 in the experiment with RPMI-8226 is 34.1 µM (inactive); in the experiment with SF-539 it was > 100 µM (inactive); in the experiment on SK-MEL-28, > 100 µM (inactive); in the experiment with SNB-19, 0.693 µM (active); with SNB-75, > 100 µM (inactive); with SR, 66.5 µM (inactive). For the same compound, the GI50 with SW-620 was > 100 µM (inactive); with UACC-62, 97.7 µM (inactive).
`CCOC12OC3=C(CC1CC1=C(CCC1=O)O2)C(=O)CC3` (stereo not drawn): the GI50 in the experiment with 786-0, with EKVX, with HOP-92, in the experiment with NCI-H226, with NCI-H460 and with OVCAR-8 was > 100 µM (inactive) in each case. Further, the GI50 with RPMI-8226, in the experiment with SF-539, with SNB-19, with SNB-75, with SR and in the experiment with SW-620 was > 100 µM (inactive) throughout. Also, in the experiment on UACC-62, the GI50 was > 100 µM (inactive).
Regarding `O=C1C2C3C=C4c5ccccc5N(c5ccccc5)C4(C2C(=O)N1c1ccc(Cl)cc1)[C@H]1C(=O)N(c2ccc(Cl)cc2)C(=O)[C@@H]31` (stereo partly drawn), the GI50 in the experiment on 786-0, in the experiment with EKVX, with HOP-92, in the experiment with NCI-H226, with NCI-H460 and in the experiment with OVCAR-8 was > 100 µM (inactive) each time. In addition, the GI50 is 22.2 µM (inactive) in the experiment with RPMI-8226; > 100 µM (inactive) in the experiment with SF-539; > 100 µM (inactive) with SNB-19; > 100 µM (inactive) with SNB-75; > 100 µM (inactive) in the experiment with SR; > 100 µM (inactive) with SW-620. The GI50 with UACC-62 was > 100 µM (inactive).
As for `Cc1ccc(-c2cc(O)c3cc4c(cc3n2)OCO4)cc1`, the GI50 in the experiment on 786-0 was 1.78 µM (inactive); in the experiment on ACHN, 7.67 µM (inactive); in the experiment on EKVX, 4.05 µM (inactive); with HOP-92, 1.87 µM (inactive); in the experiment with NCI-H226, 1.63 µM (inactive); in the experiment on NCI-H460, 0.82 µM (active). The GI50 in the experiment on OVCAR-8 was 3.2 µM (inactive); in the experiment with RPMI-8226 it was 2.13 µM (inactive); in the experiment on SF-539 it was 1.31 µM (inactive); in the experiment with SK-MEL-28, 2.67 µM (inactive); in the experiment with SNB-19, 3.12 µM (inactive); in the experiment with SNB-75 it was 1.37 µM (inactive). Besides, the 50% growth inhibitory concentration (GI50) is 0.973 µM (active) in the experiment on SR, 0.482 µM (active) in the experiment with SW-620 and 0.729 µM (active) with UACC-62.
